Measured values as given in the NIST ThermoML archive (doi:10.1021/je500886a).

Experiment: mn = molality of the nth substance listed, in mol/kg
Details: 101 kPa, Liquid

O=C(CO)[C@@H](O)[C@H](O)[C@@H](O)CO [L-sorbose] + O
Details | mass density [kg/m3] | viscosity [mPa·s]
288.15 K, m1 = 0.04909 | – | 1.162
288.15 K, m1 = 0.05105 | 1002.68 | –
288.15 K, m1 = 0.06584 | 1003.7 | –
288.15 K, m1 = 0.0704 | – | 1.173
288.15 K, m1 = 0.08456 | – | 1.182
288.15 K, m1 = 0.08815 | 1005.22 | –
288.15 K, m1 = 0.1091 | – | 1.195
288.15 K, m1 = 0.1289 | – | 1.206
288.15 K, m1 = 0.1505 | 1009.38 | –
288.15 K, m1 = 0.1507 | – | 1.216
298.15 K, m1 = 0.04909 | – | 0.907
298.15 K, m1 = 0.05105 | 1000.57 | –
298.15 K, m1 = 0.06584 | 1001.57 | –
298.15 K, m1 = 0.0704 | – | 0.916
298.15 K, m1 = 0.08456 | – | 0.923
298.15 K, m1 = 0.08815 | 1003.06 | –
298.15 K, m1 = 0.1073 | 1004.33 | –
298.15 K, m1 = 0.1091 | – | 0.931
298.15 K, m1 = 0.1507 | – | 0.947
308.15 K, m1 = 0.04909 | – | 0.733
308.15 K, m1 = 0.06584 | 998.56 | –
308.15 K, m1 = 0.0704 | – | 0.738
308.15 K, m1 = 0.08815 | 1000.04 | –
308.15 K, m1 = 0.1073 | 1001.3 | –
308.15 K, m1 = 0.1091 | – | 0.75
308.15 K, m1 = 0.1289 | – | 0.756
308.15 K, m1 = 0.1317 | 1002.89 | –
308.15 K, m1 = 0.1505 | 1004.1 | –
308.15 K, m1 = 0.1507 | – | 0.762
318.15 K, m1 = 0.04909 | – | 0.606
318.15 K, m1 = 0.05105 | 993.72 | –
318.15 K, m1 = 0.06584 | 994.7 | –
318.15 K, m1 = 0.0704 | – | 0.611
318.15 K, m1 = 0.08456 | – | 0.615
318.15 K, m1 = 0.08815 | 996.17 | –
318.15 K, m1 = 0.1073 | 997.41 | –
318.15 K, m1 = 0.1091 | – | 0.62
318.15 K, m1 = 0.1289 | – | 0.624
318.15 K, m1 = 0.1317 | 998.98 | –
318.15 K, m1 = 0.1505 | 1000.18 | –
318.15 K, m1 = 0.1507 | – | 0.629

[Br-].[NH4+] [ammonium bromide] + O
Details | mass density, 288.15 K [kg/m3] | mass density, 298.15 K [kg/m3] | mass density, 308.15 K [kg/m3] | mass density, 318.15 K [kg/m3] | viscosity, 288.15 K [mPa·s] | viscosity, 298.15 K [mPa·s] | viscosity, 308.15 K [mPa·s] | viscosity, 318.15 K [mPa·s]
m1 = 0.05 | 1001.05 | 998.76 | 995.75 | 992.91 | 1.132 | 0.888 | 0.719 | 0.597
m1 = 0.5 | 1024.05 | 1021.81 | 1019.06 | 1015.68 | 1.096 | 0.87 | 0.71 | 0.598
m1 = 1 | 1049.01 | 1046.88 | 1043.31 | 1040.33 | 1.057 | 0.853 | 0.697 | 0.6
m1 = 2 | 1095.99 | 1092.56 | 1088.78 | 1085.68 | 1.002 | 0.827 | 0.678 | 0.602

OC[C@@H](O)[C@H](O)[C@H](O)[C@@H](O)CO [dulcitol] + O
Details | mass density, 288.15 K [kg/m3] | mass density, 298.15 K [kg/m3] | mass density, 308.15 K [kg/m3] | mass density, 318.15 K [kg/m3] | viscosity, 288.15 K [mPa·s] | viscosity, 298.15 K [mPa·s] | viscosity, 308.15 K [mPa·s] | viscosity, 318.15 K [mPa·s]
m1 = 0.0503 | – | – | – | – | 1.164 | 0.909 | 0.732 | 0.605
m1 = 0.05086 | 1002.35 | 1000.21 | 997.18 | 993.33 | – | – | – | –
m1 = 0.07104 | – | – | – | – | 1.175 | 0.916 | 0.737 | 0.609
m1 = 0.0735 | 1003.75 | 1001.6 | 998.55 | 994.68 | – | – | – | –
m1 = 0.08768 | 1004.62 | 1002.46 | 999.39 | 995.51 | – | – | – | –
m1 = 0.08872 | – | – | – | – | 1.185 | 0.921 | 0.743 | 0.612
m1 = 0.1066 | 1005.78 | 1003.6 | 1000.52 | 996.63 | – | – | – | –
m1 = 0.1091 | – | – | – | – | 1.196 | 0.928 | 0.747 | 0.616
m1 = 0.1279 | 1007.07 | 1004.88 | 1001.77 | 997.86 | – | – | – | –
m1 = 0.1283 | – | – | – | – | 1.204 | 0.935 | 0.752 | 0.619
m1 = 0.1457 | 1008.14 | 1005.94 | 1002.81 | 998.89 | – | – | – | –
m1 = 0.1468 | – | – | – | – | 1.215 | 0.941 | 0.757 | 0.622

OC[C@@H](O)[C@H](O)[C@@H](O)CO [xylitol] + O
Details | mass density, 288.15 K [kg/m3] | mass density, 298.15 K [kg/m3] | mass density, 308.15 K [kg/m3] | mass density, 318.15 K [kg/m3] | viscosity, 288.15 K [mPa·s] | viscosity, 298.15 K [mPa·s] | viscosity, 308.15 K [mPa·s] | viscosity, 318.15 K [mPa·s]
m1 = 0.04981 | – | – | – | – | 1.164 | 0.909 | 0.733 | 0.607
m1 = 0.0542 | 1001.89 | 999.75 | 996.72 | 992.86 | – | – | – | –
m1 = 0.06784 | – | – | – | – | 1.173 | 0.915 | 0.738 | 0.611
m1 = 0.07245 | 1002.81 | 1000.65 | 997.6 | 993.73 | – | – | – | –
m1 = 0.0852 | 1003.45 | 1001.27 | 998.22 | 994.33 | – | – | – | –
m1 = 0.08897 | – | – | – | – | 1.183 | 0.922 | 0.743 | 0.615
m1 = 0.1059 | – | – | – | – | 1.191 | 0.93 | 0.747 | 0.619
m1 = 0.1095 | 1004.66 | 1002.44 | 999.37 | 995.46 | – | – | – | –
m1 = 0.1313 | – | – | – | – | 1.204 | 0.939 | 0.755 | 0.624
m1 = 0.1314 | 1005.74 | 1003.49 | 1000.41 | 996.48 | – | – | – | –
m1 = 0.1501 | – | – | – | – | 1.212 | 0.945 | 0.76 | 0.628
m1 = 0.1527 | 1006.77 | 1004.5 | 1001.41 | 997.46 | – | – | – | –
